Data as given in patent US12187709B2 (Genentech, Inc., priority 2021, dated 2025).

Tests used:
Cbl-b = Cbl-b (Homo sapiens (Human), UniProt Q13191); assay: Cbl-b LCK Ub TR-FRET assay (Cbl-b Lck HTRF); type: biochemical; conditions: for IC50: Cbl-b LCK Ub TR-FRET
Protocol: (§1) 6 μL of detection mixture was added to all wells and briefly centrifuged before incubating for 20 min at room temperature. […] IC50 was generated using no LCK as the low control and DMSO as the high control.

c-Cbl = c-Cbl (Homo sapiens (Human), UniProt P22681); assay: C-Cbl LCK Ub TR-FRET assay (C-cbl Lck HTRF); type: biochemical
Protocol: as §1

[1] = molecular target: Human Cbl-b (residues 40-426) (Homo sapiens (Human), UniProt Q13191); assay: Cbl-b SPR assay; type: binding; conditions: C-cbl SPR Kd vs Cbl-b SPR Kd
Protocol: Affinity of binding to Cbl-b and c-Cbl for compounds described herein was assessed by surface plasmon resonance (SPR) according to the following protocol.
A surface capture range of 1300-1500 RU of protein was used for both isoforms.
For SPR measurements, 6 concentrations with 2 fold serial dilution were measured with blanks flanking each series for double referencing. […] SPR sensorgrams were recorded in multi-cycle kinetics format, with a contact time of 60 seconds and a flow rate of 40 μl/min, the dissociation time was varied between 120-1200 seconds aiming for 4-5 half-lives of the measured interaction.
Kinetic and affinity parameters were extracted from the multicycle kinetics data fitting to a 1:1 binding model using the Biacore™ Incyte evaluation software (Cytiva).
Chaser assay utilize a single cycle kinetics SPR experiment with a contact time of 120 seconds, a flow rate of 50 μl/min and a dissociation time of 450 seconds. Single cycle kinetics titration utilized an initial blank injection and 5 concentrations with 2 fold serial dilution with a maximum concentration of 500 nM, blanked to a preceding 6 point blank single cycle kinetics injection for double referencing.
The kd is measured independently by determining the percentage unoccupied compound binding site over time by measuring the binding of a chaser compound measured by SPR.
Chaser binding was measured by a multicycle kinetics SPR experiment using a contact time of 20 seconds, a flow rate of 30 μl/min, and a dissociation time of 120 seconds. […] The % compound bound at a given time was determined by comparison to a single injection of chaser preceding the single cycle kinetics titration defined below. % Compound Bound=(1−(RUT/RUT0))*100
The % compound bound is plotted against time in seconds and fit to a single exponential, where the exponent represents the kd of the compound-protein complex. The single cycle kinetics experiment of the compound is then fit with a fixed kd determined using the chaser.

[2] = ratio C-cbl Lck HTRF IC50 / Cbl-b Lck HTRF IC50

Cbl-b, sequence (Q13191 40-426): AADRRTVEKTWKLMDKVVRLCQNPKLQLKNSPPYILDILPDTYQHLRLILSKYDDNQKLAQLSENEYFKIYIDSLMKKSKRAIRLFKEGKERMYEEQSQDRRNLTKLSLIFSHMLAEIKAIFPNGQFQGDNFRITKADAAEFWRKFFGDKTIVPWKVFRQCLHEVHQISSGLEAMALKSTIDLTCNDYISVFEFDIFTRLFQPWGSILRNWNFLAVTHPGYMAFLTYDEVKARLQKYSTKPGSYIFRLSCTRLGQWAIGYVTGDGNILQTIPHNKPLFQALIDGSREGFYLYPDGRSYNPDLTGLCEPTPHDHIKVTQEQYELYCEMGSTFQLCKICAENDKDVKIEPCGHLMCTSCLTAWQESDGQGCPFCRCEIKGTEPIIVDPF
Human Cbl-b (residues 40-426), sequence (Q13191 40-426): as above
c-Cbl, sequence (P22681 47-435): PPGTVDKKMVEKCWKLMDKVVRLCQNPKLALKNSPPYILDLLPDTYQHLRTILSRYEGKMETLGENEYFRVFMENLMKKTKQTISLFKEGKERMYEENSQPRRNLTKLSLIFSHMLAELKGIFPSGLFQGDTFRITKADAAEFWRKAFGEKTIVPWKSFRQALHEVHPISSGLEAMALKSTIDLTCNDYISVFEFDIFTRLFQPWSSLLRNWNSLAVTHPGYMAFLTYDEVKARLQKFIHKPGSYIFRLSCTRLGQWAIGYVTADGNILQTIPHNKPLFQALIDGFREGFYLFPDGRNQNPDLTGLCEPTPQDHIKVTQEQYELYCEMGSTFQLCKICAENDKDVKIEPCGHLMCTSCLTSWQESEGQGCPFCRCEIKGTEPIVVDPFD

Compound	IC50 (Cbl-b)	fold-selectivity (Cbl-b over C-cbl) (Cbl-b; [2])	IC50 (c-Cbl)	Fold of selectivity [1]	IC50 (Cbl-b; Example 121)	(fold-selectivity) Cbl-b and C-Cbl Selectivity (Cbl-b; [2])
Cn1cnnc1[C@](C)(O)c1cccc(N2Cc3c(cc(CNC4(C)CCC4)cc3C(F)(F)F)C2=O)c1 [Compound 305, (R)-2-(3-(1-hydroxy-1-(4-methyl-4H-1,2,4-triazol-3-yl)ethyl)phenyl)-6-(((1-methylcyclobutyl)amino)methyl)-4-(trifluoromethyl)isoindolin-1-one]	≥ 20000 nM	1.0x	20000 nM	–	–	–
Cn1cnnc1[C@]1(c2cc(OC3CCCC3)nc(N3Cc4c(cc(CNC5(C)CCC5)cc4C(F)(F)F)C3=O)c2)C[C@H](C)C1 [Compound 54, 2-(6-(cyclopentyloxy)-4-((1s,3s)-3-methyl-1-(4-methyl-4H-1,2,4-triazol-3-yl)cyclobutyl)pyridin-2-yl)-6-(((1-methylcyclobutyl)amino)methyl)-4-(trifluoromethyl)isoindolin-1-one]	8.2 nM	(1.4x)	–	11×	–	–
Cn1cnnc1[C@@H](c1cccc(N2Cc3c(cc(CNC4(C)CCC4)cc3C(F)(F)F)C2=O)c1)C1CCOCC1 [Compound 290, (R)-2-(3-((4-methyl-4H-1,2,4-triazol-3-yl)(tetrahydro-2H-pyran-4-yl)methyl)phenyl)-6-(((1-methylcyclobutyl)amino)methyl)-4-(trifluoromethyl)isoindolin-1-one]	13000 nM	1.5x	20000 nM	–	–	–
Cn1cnnc1C1(c2cccc(N3Cc4c(cc(CNC5(C)CCC5)cc4C(F)(F)F)C3=O)c2)CC2(CCC2)C1 [Compound 40]	8.9 nM	(3.2x)	28 nM	–	–	–
Cn1cnnc1[C@H](c1ccccc1)c1cccc(N2Cc3c(Cl)cc(CNC4(C)CCC4)cc3C2=O)c1 (single isomer, unassigned) [Compound 158]	1400 nM	3.6 x	5000 nM	–	–	–
Cn1cnnc1[C@]1(c2cc(NC3CCCC3)nc(N3Cc4c(cc(CNC5(C)CCC5)cc4C(F)(F)F)C3=O)c2)C[C@@H](C)C1 [Compound 52, 2-(6-(cyclopentylamino)-4-((1r,3r)-3-methyl-1-(4-methyl-4H-1,2,4-triazol-3-yl)cyclobutyl)pyridin-2-yl)-6-(((1-methylcyclobutyl)amino)methyl)-4-(trifluoromethyl)isoindolin-1-one]	7.2 nM	(1.3x)	–	11×	–	–
CO[C@]1(C)C[C@](c2cccc(N3Cc4c(cc(CNC5(C)CCC5)cc4C(F)(F)F)C3=O)c2)(c2nncn2C)C1 [Compound 29, 2-(3-((1s,3s)-3-methoxy-3-methyl-1-(4-methyl-4H-1,2,4-triazol-3-yl)cyclobutyl)phenyl)-6-(((1-methylcyclobutyl)amino)methyl)-4-(trifluoromethyl)isoindolin-1-one]	83 nM	(2.0x)	166 nM	–	–	–
Cn1cnnc1[C@H](c1cccc(N2Cc3c(cc(CNC4(C)CCC4)cc3C(F)(F)F)C2=O)c1)C1CCOCC1.O=CO (single isomer, unassigned) [Compound 291]	–	4.3x	–	2.1×	–	–
CO[C@@H](c1cccc(N2Cc3c(cc(CNC4(C)CCC4)cc3C(F)(F)F)C2=O)c1)c1nncn1C (single isomer, unassigned) [Compound 43]	470 nM	(1.2x)	560 nM	–	–	–
Cn1cnnc1[C@H](c1cccc(N2Cc3c(Cl)cc(CNC4(C)CCC4)cc3C2=O)c1)C1COC1 (single isomer, unassigned) [Compound 271]	1800 nM	2.6x	4300 nM	–	–	–
CC1(NCc2cc3c(c(C(F)(F)F)c2)CN(c2cccc([C@H](C4COC4)n4ccnn4)c2)C3=O)CCC1 (single isomer, unassigned) [Compound 437]	–	–	20000 nM	–	≥ 20000 nM	1.0x
Cn1cnnc1[C@]1(c2cc(NC3CCCC3)nc(N3Cc4c(cc(CNC5(C)CCC5)cc4C(F)(F)F)C3=O)c2)C[C@H](C)C1 [Compound 53, 2-(6-(cyclopentylamino)-4-((1s,3s)-3-methyl-1-(4-methyl-4H-1,2,4-triazol-3-yl)cyclobutyl)pyridin-2-yl)-6-(((1-methylcyclobutyl)amino)methyl)-4-(trifluoromethyl)isoindolin-1-one]	5.7 nM	(1.1x)	–	9.2×	–	–
Cn1cnnc1[C@@H](C[C@H]1COCCO1)c1cccc(N2Cc3c(cc(CNC4(C)CCC4)cc3C(F)(F)F)C2=O)c1 (single isomer, unassigned) [Compound 295]	–	1.0x	20000 nM	–	–	–
CC1(NCc2cc3c(c(C(F)(F)F)c2)CN(c2cccc([C@@H](C4COC4)n4ccnn4)c2)C3=O)CCC1 (single isomer, unassigned) [Compound 436, (R)-6-(((1-methylcyclobutyl)amino)methyl)-2-(3-(oxetan-3-yl(1H-1,2,3-triazol-1-yl)methyl)phenyl)-4-(trifluoromethyl)isoindolin-1-one]	–	–	–	–	570 nM	–
CC(=O)N1CC(c2cccc(N3Cc4c(cc(CNC5(C)CCC5)cc4C(F)(F)F)C3=O)c2)(c2nncn2C)C1 [Compound 112, 2-(3-(1-acetyl-3-(4-methyl-4H-1,2,4-triazol-3-yl)azetidin-3-yl)phenyl)-6-(((1-methylcyclobutyl)amino)methyl)-4-(trifluoromethyl)isoindolin-1-one]	≥ 20000 nM	1.0x	–	–	–	–
CO[C@@](c1cccc(N2Cc3c(cc(CNC4(C)CCC4)cc3C(F)(F)F)C2=O)c1)(c1nncn1C)C1CCC1 (single isomer, unassigned) [Compound 118]	≥ 20000 nM	1.0x	–	–	–	–
Cn1cnnc1[C@]1(c2cc(OC3CCCC3)nc(N3Cc4c(cc(CNC5(C)CCC5)cc4C(F)(F)F)C3=O)c2)C[C@@H](C)C1 [Compound 55, 2-(6-(cyclopentyloxy)-4-((1r,3r)-3-methyl-1-(4-methyl-4H-1,2,4-triazol-3-yl)cyclobutyl)pyridin-2-yl)-6-(((1-methylcyclobutyl)amino)methyl)-4-(trifluoromethyl)isoindolin-1-one]	6.7 nM	(1.4x)	–	–	–	–
Cn1cnnc1[C@@H](C[C@H]1COCCO1)c1cccc(N2Cc3c(cc(CNC4(C)CCC4)cc3C(F)(F)F)C2=O)c1 (single isomer, unassigned) [Compound 295, 2-(3-((S)-2-((S)-1,4-dioxan-2-yl)-1-(4-methyl-4H-1,2,4-triazol-3-yl)ethyl)phenyl)-6-(((1-methylcyclobutyl)amino)methyl)-4-(trifluoromethyl)isoindolin-1-one]	≥ 20000 nM	–	–	–	–	–
Cn1cnnc1[C@H](c1cccc(N2Cc3c(cc(CNC4(C)CCC4)cc3C(F)(F)F)C2=O)c1)[C@H]1C[C@H](C)C1 (single isomer, unassigned) [Compound 376]	55 nM	–	–	–	–	–
CCNc1cc(C2(c3nncn3C)CC(F)(F)C2)cc(N2Cc3c(cc(CNC4(C)CCC4)cc3C(F)(F)F)C2=O)n1 [Compound 62, 2-(4-(3,3-difluoro-1-(4-methyl-4H-1,2,4-triazol-3-yl)cyclobutyl)-6-(ethylamino)pyridin-2-yl)-6-(((1-methylcyclobutyl)amino)methyl)-4-(trifluoromethyl)isoindolin-1-one]	5.5 nM	–	–	–	–	–
Cn1cnnc1[C@]1(c2cc(NC3CCCCC3)nc(N3Cc4c(cc(CNC5(C)CCC5)cc4C(F)(F)F)C3=O)c2)C[C@@H](C)C1 [Compound 50, 2-(6-(cyclohexylamino)-4-((1r,3r)-3-methyl-1-(4-methyl-4H-1,2,4-triazol-3-yl)cyclobutyl)pyridin-2-yl)-6-(((1-methylcyclobutyl)amino)methyl)-4-(trifluoromethyl)isoindolin-1-one]	31 nM	(1.7x)	–	3.0×	–	–
Cn1cnnc1[C@]1(c2cc(NC3CCCCC3)nc(N3Cc4c(cc(CNC5(C)CCC5)cc4C(F)(F)F)C3=O)c2)C[C@H](C)C1 [Compound 51, 2-(6-(cyclohexylamino)-4-((1s,3s)-3-methyl-1-(4-methyl-4H-1,2,4-triazol-3-yl)cyclobutyl)pyridin-2-yl)-6-(((1-methylcyclobutyl)amino)methyl)-4-(trifluoromethyl)isoindolin-1-one]	38 nM	(1.6x)	–	–	–	–
